{
  "source": "patent US10449245B2",
  "about": "(priority 2014, dated 2019)",
  "system": "HIV-1",
  "test": "HIV transcription as cell-associated unspliced HIV-1 RNA in CD4+ T cells (digital droplet PCR), REDUC Part A",
  "assay_type": "in vivo, human",
  "conditions": "for CA US HIV RNA: individual subjects 1101, 1102, 1103, 1105, 1106, 1107 = c1-c6; for CA US HIV RNA / CA US HIV RNA, Mean: romidepsin 5 mg/m^2 i.v. days 0, 7, 14; for CA US HIV RNA, Mean: mean of subjects",
  "experimental": "Part A of the clinical study contained three phases. […] Second, a viral reactivation phase of 3 weeks (visit 2 to visit 7) consisting of one cycle of romidepsin infusions at a dosing of 5 mg/m^2 administered intravenously over a 4 hour period. De-escalation down to 2.5 mg/m^2 was planned in case of dose-limiting toxicity was observed. Romidepsin was infused on days 0, 7, and 14. Third, a post-activation phase of ˜9 weeks (visit 8 to visit 11) to assess the effect of romidepsin on the size of latent HIV-1I reservoir.\nHIV transcription was measured as copies of cell-associated unspliced HIV-1 RNA/106 CD4+ T cells using digital droplet PCR. CD4+ T-cells were isolated from PBMCs using Miltenyi Biotec negative bead separation kit (CD4 T cell isolation, #130-096-533) as described with LD separation columns, lysed (Lysis buffer from Qiagen DNA/RNA extraction kit), and stored ad −80° C. until extraction of RNA and DNA (Allprep isolation kit, Qiagen). Reverse transcription, amplification and quantitation of cell-associated unspliced HIV RNA from HIV patients was performed as follows. In summary, HIV unspliced RNA was detected on the BioRad QX100 droplet digital platform using a defined primer/probe set and related to total cell input by quantitation of the IPO8 (Importin 8) and TBP (Tata Binding Protein) gene transcription. A mixture of 11.5 μl patient extracted mRNA in nuclease-free dH, 1 μl 10 mM dNTP U1240 (Promega), 0.5 μl 3 μg/μl Random hexamers (Applied Biosystems) and 0.5 μl of 0.5 μg/μl Oligo(dT)12-18 Primer (Invitrogen) was prepared, incubated at 65° C. for 5 min, and then immediately on ice for 5 min. First-strand cDNA production was performed by adding a mixture of 4.0 μl 5× First Strand Buffer (Invitrogen), 1.0 μl 0.1M DTT (Invitrogen), 0.5 μl RNAseOUT RNAse inhibitor (40 U/μl, Invitrogen), 1.0 μl Superscript III Reverse Transcriptase (200 U/μl, Invitrogen) for a total reaction volume of 20 μl and incubating at 42° C. for 45 min, then 80° C. for 15 min in a PCR machine. The reaction was held at 4° C. or on ice until performing the downstream assay. […] To adjust for the total cellular input in each sample, relative copy numbers were normalized to two human endogenous control genes TBP PL (VIC) assay ID: Hs00183533_m1 and IPO8 (FAM) assay ID: Hs00427620_m1 (TaqMan gene expression assay, LifeTechnologies, Denmark). All HIV RT samples were run in six replicates while the reference genes were assayed in duplicate. The PCR reaction mixture was loaded into the BioRad QX-100 emulsification device fractionating each sample into 20,000 nanoliter-sized droplets following the manufacturer's instructions. PCR cycling conditions were as follows: 95° C. for 10 min, followed by 40 cycles of a 30 second denaturation at 95° C. followed by a 59° C. extension for 60 seconds and a final 10 minutes at 98° C. After cycling droplets were subsequently read automatically by the QX100 droplet reader (BioRad) and the data was analyzed with the QuantaSoft™ analysis software (BioRad).",
  "key": {"[1]": {"conditions": "visit 1 (day −21, pre-treatment)"}, "[2]": {"conditions": "visit 2A (day 0, pre-treatment)"}},
  "note": "Several values for one entry are separate records, joined by “and”; a condition that tells them apart may be missing. Identical values can stand only once.",
  "data": [
    {"molecule": "C/C=C1\\NC(=O)[C@H]2CSSCC/C=C/[C@H](CC(=O)N[C@H](C(C)C)C(=O)N2)OC(=O)[C@H](C(C)C)NC1=O", "note": "[romidepsin, (1S,4S,7Z,10S,16E,21R)-7-ethylidene-4,21-bis(1-methylethyl)-2-oxa-12,13-dithia-5,8,20,23-tetraazabicyclo[8.7.6]tricos-16-ene-3,6,9,19,22-pentone]", "values": [
      {"measurement": "HIV reactivation", "setting": "5 mg/m^2 romidepsin, patients on cART", "value": "successfully able to reactivate HIV in 6 patients"},
      {"measurement": "HIV-1 transcription (cell-associated un-spliced HIV-1 RNA), fold range increase from baseline", "setting": "after third infusion, p=0.03, Wilcoxon", "value": "2.4-5.0 fold"},
      {"measurement": "cell-associated un-spliced HIV RNA, change", "setting": "as a result of romidepsin infusion", "value": "significantly increased"},
      {"measurement": "CA US HIV RNA", "setting": "[1]", "value": "5.4 HIV RNA copies/10^6 CD4+ T cel and 19.7 HIV RNA copies/10^6 CD4+ T cel and 9.7 HIV RNA copies/10^6 CD4+ T cel and 4.8 HIV RNA copies/10^6 CD4+ T cel and 15.9 HIV RNA copies/10^6 CD4+ T cel and 8.7 HIV RNA copies/10^6 CD4+ T cel"},
      {"measurement": "CA US HIV RNA, Mean", "setting": "[1]", "value": "10.7 HIV RNA copies/10^6 CD4+ T cel"},
      {"measurement": "CA US HIV RNA", "setting": "[2]", "value": "13.3 HIV RNA copies/10^6 CD4+ T cel and 16.8 HIV RNA copies/10^6 CD4+ T cel and 7.4 HIV RNA copies/10^6 CD4+ T cel and 14.5 HIV RNA copies/10^6 CD4+ T cel and 4.5 HIV RNA copies/10^6 CD4+ T cel"},
      {"measurement": "CA US HIV RNA, Mean", "setting": "[2]", "value": "11.3 HIV RNA copies/10^6 CD4+ T cel"},
      {"measurement": "CA US HIV RNA", "setting": "visit 2B (day 0 + 4 h)", "value": "23.0 HIV RNA copies/10^6 CD4+ T cel and 21.7 HIV RNA copies/10^6 CD4+ T cel and 15.7 HIV RNA copies/10^6 CD4+ T cel and 6.2 HIV RNA copies/10^6 CD4+ T cel and 18.7 HIV RNA copies/10^6 CD4+ T cel and 7.6 HIV RNA copies/10^6 CD4+ T cel"},
      {"measurement": "CA US HIV RNA, Mean", "setting": "visit 2B (day 0 + 4 h)", "value": "15.5 HIV RNA copies/10^6 CD4+ T cel"},
      {"measurement": "CA US HIV RNA", "setting": "visit 3 (day 1)", "value": "16.7 HIV RNA copies/10^6 CD4+ T cel and 33.8 HIV RNA copies/10^6 CD4+ T cel and 9.5 HIV RNA copies/10^6 CD4+ T cel and 7.3 HIV RNA copies/10^6 CD4+ T cel and 29.4 HIV RNA copies/10^6 CD4+ T cel and 10.3 HIV RNA copies/10^6 CD4+ T cel"},
      {"measurement": "CA US HIV RNA, Mean", "setting": "visit 3 (day 1)", "value": "17.8 HIV RNA copies/10^6 CD4+ T cel"},
      {"measurement": "CA US HIV RNA", "setting": "visit 4 (day 3)", "value": "26.4 HIV RNA copies/10^6 CD4+ T cel and 36.2 HIV RNA copies/10^6 CD4+ T cel and 7.5 HIV RNA copies/10^6 CD4+ T cel and 6.8 HIV RNA copies/10^6 CD4+ T cel and 12.1 HIV RNA copies/10^6 CD4+ T cel and 6.6 HIV RNA copies/10^6 CD4+ T cel"},
      {"measurement": "CA US HIV RNA, Mean", "setting": "visit 4 (day 3)", "value": "15.9 HIV RNA copies/10^6 CD4+ T cel"},
      {"measurement": "CA US HIV RNA", "setting": "visit 5A (day 7)", "value": "12.5 HIV RNA copies/10^6 CD4+ T cel and 13.7 HIV RNA copies/10^6 CD4+ T cel and 11.3 HIV RNA copies/10^6 CD4+ T cel and 7.6 HIV RNA copies/10^6 CD4+ T cel and 18.9 HIV RNA copies/10^6 CD4+ T cel and 6.6 HIV RNA copies/10^6 CD4+ T cel"},
      {"measurement": "CA US HIV RNA, Mean", "setting": "visit 5A (day 7)", "value": "11.8 HIV RNA copies/10^6 CD4+ T cel"},
      {"measurement": "CA US HIV RNA", "setting": "visit 5B (day 7 + 4 h)", "value": "33.7 HIV RNA copies/10^6 CD4+ T cel and 43.3 HIV RNA copies/10^6 CD4+ T cel and 24.8 HIV RNA copies/10^6 CD4+ T cel and 24.0 HIV RNA copies/10^6 CD4+ T cel and 45.2 HIV RNA copies/10^6 CD4+ T cel"},
      {"measurement": "CA US HIV RNA, Mean", "setting": "visit 5B (day 7 + 4 h)", "value": "34.2 HIV RNA copies/10^6 CD4+ T cel"},
      {"measurement": "CA US HIV RNA", "setting": "visit 6 (day 10)", "value": "21.3 HIV RNA copies/10^6 CD4+ T cel and 29.0 HIV RNA copies/10^6 CD4+ T cel and 10.4 HIV RNA copies/10^6 CD4+ T cel and 9.1 HIV RNA copies/10^6 CD4+ T cel and 14.4 HIV RNA copies/10^6 CD4+ T cel and 7.9 HIV RNA copies/10^6 CD4+ T cel"},
      {"measurement": "CA US HIV RNA, Mean", "setting": "visit 6 (day 10)", "value": "15.3 HIV RNA copies/10^6 CD4+ T cel"},
      {"measurement": "CA US HIV RNA", "setting": "visit 7A (day 14)", "value": "13.3 HIV RNA copies/10^6 CD4+ T cel and 24.2 HIV RNA copies/10^6 CD4+ T cel and 9.9 HIV RNA copies/10^6 CD4+ T cel and 6.0 HIV RNA copies/10^6 CD4+ T cel and 18.1 HIV RNA copies/10^6 CD4+ T cel"},
      {"measurement": "CA US HIV RNA, Mean", "setting": "visit 7A (day 14)", "value": "14.3 HIV RNA copies/10^6 CD4+ T cel"},
      {"measurement": "CA US HIV RNA", "setting": "visit 7B (day 14 + 4 h)", "value": "36.5 HIV RNA copies/10^6 CD4+ T cel and 51.9 HIV RNA copies/10^6 CD4+ T cel and 21.0 HIV RNA copies/10^6 CD4+ T cel and 76.0 HIV RNA copies/10^6 CD4+ T cel and 20.5 HIV RNA copies/10^6 CD4+ T cel"},
      {"measurement": "CA US HIV RNA, Mean", "setting": "visit 7B (day 14 + 4 h)", "value": "41.2 HIV RNA copies/10^6 CD4+ T cel"},
      {"measurement": "CA US HIV RNA", "setting": "visit 8 (day 17)", "value": "17.4 HIV RNA copies/10^6 CD4+ T cel and 17.8 HIV RNA copies/10^6 CD4+ T cel and 4.2 HIV RNA copies/10^6 CD4+ T cel and 14.9 HIV RNA copies/10^6 CD4+ T cel and 8.9 HIV RNA copies/10^6 CD4+ T cel"},
      {"measurement": "CA US HIV RNA, Mean", "setting": "visit 8 (day 17)", "value": "12.7 HIV RNA copies/10^6 CD4+ T cel"},
      {"measurement": "CA US HIV RNA", "setting": "visit 9 (day 21)", "value": "16.4 HIV RNA copies/10^6 CD4+ T cel and 19.0 HIV RNA copies/10^6 CD4+ T cel and 4.6 HIV RNA copies/10^6 CD4+ T cel and 5.2 HIV RNA copies/10^6 CD4+ T cel and 11.1 HIV RNA copies/10^6 CD4+ T cel"},
      {"measurement": "CA US HIV RNA, Mean", "setting": "visit 9 (day 21)", "value": "11.3 HIV RNA copies/10^6 CD4+ T cel"},
      {"measurement": "CA US HIV RNA", "setting": "visit 10 (day 56)", "value": "17.9 HIV RNA copies/10^6 CD4+ T cel and 25.0 HIV RNA copies/10^6 CD4+ T cel and 7.6 HIV RNA copies/10^6 CD4+ T cel and 6.2 HIV RNA copies/10^6 CD4+ T cel and 16.8 HIV RNA copies/10^6 CD4+ T cel and 9.3 HIV RNA copies/10^6 CD4+ T cel"}
    ]}
  ]
}
